Reference: patent US20250129430A1, “HIGH ATP-AFFINITY PROTEIN AS THERAPEUTIC TARGET FOR INTRACTABLE CANCER MOLECULAR SUBTYPES AND INHIBITOR THEREOF” (VeraVerse Co., Ltd., priority 2021, published 2025)
Counter-ions that a name gives are not always drawn.

Key:
Test in all cases: Cell viability drug screen, 12-point dose-response AUC
Assay type in all cases: cell-based, human
YCC11 = details: 72 hours; for Average Area Under the Viability Curve (AUC), AUC norm value: YCC11 cells (SEM subtype)
Method in brief: (§1)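 Viability: luminescence (Glo kit, 15 min RT), normalized to 0.5% DMSO vehicle. Dosing: half-log, 12 concentrations, 72 h. Cells: 5×10^3/well, treated 24 h after plating. Value: trapezoidal AUC, mean of repeats.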

YCC2 = YCC2 cells, 72 hours
Method in brief: as §1

SNU601 = SNU601 cells, 72 hours
Method in brief: as §1

YCC3 = YCC3 cells, 72 hours
Method in brief: as §1

MKN45 = details: 72 hours; for Average Area Under the Viability Curve (AUC), AUC norm value: MKN45 cells (non-SEM subtype)
Method in brief: as §1

SNU638 = SNU638 cells, 72 hours
Method in brief: as §1

KATO3 = KATO3 cells, 72 hours
Method in brief: as §1

SNU668 = details: 72 hours; for Average Area Under the Viability Curve (AUC), AUC norm value: SNU668 cells (SEM subtype)
Method in brief: as §1

Hs746T = details: 72 hours; for Average Area Under the Viability Curve (AUC), AUC norm value: Hs746T cells (SEM subtype)
Method in brief: as §1

SNU719 = SNU719 cells, 72 hours
Method in brief: as §1

SNU1 = SNU1 cells, 72 hours
Method in brief: as §1

NCC24 = NCC24 cells, 72 hours
Method in brief: as §1

MKN1 = MKN1 cells, 72 hours
Method in brief: as §1

SNU484 = details: 72 hours; for Average Area Under the Viability Curve (AUC), AUC norm value: SNU484 cells (SEM subtype)
Method in brief: as §1

MKN28 = MKN28 cells, 72 hours
Method in brief: as §1

SNU16 = SNU16 cells, 72 hours
Method in brief: as §1

MKN74 = MKN74 cells, 72 hours
Method in brief: as §1

SNU216 = details: 72 hours; for Average Area Under the Viability Curve (AUC), AUC norm value: SNU216 cells (non-SEM subtype)
Method in brief: as §1

SNU620 = SNU620 cells, 72 hours
Method in brief: as §1

AGS = details: 72 hours; for Average Area Under the Viability Curve (AUC), AUC norm value: AGS cells (non-SEM subtype)
Method in brief: as §1

SK4 = details: 72 hours; for Average Area Under the Viability Curve (AUC), AUC norm value: SK4 cells (SEM subtype)
Method in brief: as §1

NCC19 = NCC19 cells, 72 hours
Method in brief: as §1

NCC20 = NCC20 cells, 72 hours
Method in brief: as §1

SNU1967 = SNU1967 cells, 72 hours
Method in brief: as §1

NCC59 = NCC59 cells, 72 hours
Method in brief: as §1

OCUM1 = OCUM1 cells, 72 hours
Method in brief: as §1

NCI_N87 = NCI_N87 cells, 72 hours
Method in brief: as §1

SNU1750 = details: 72 hours; for Average Area Under the Viability Curve (AUC), AUC norm value: SNU1750 cells (SEM subtype)
Method in brief: as §1

FU97 = system: FU97; set-up: Average Area Under the Viability Curve (AUC), AUC norm value: scale not given here; details: FU97 cells, 72 hours
Method in brief: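 Trapezoidal AUC of a 12-point, DMSO-normalized dose-response curve. Luminescent viability was measured after 72 h of exposure at 37° C to half-log serial dilutions (0.5% DMSO control), dosed 24 h after plating FU97 cells at 5×10^3 per well.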

CC(C)C[C@H](NC(=O)[C@H](CCc1ccccc1)NC(=O)CN1CCOCC1)C(=O)N[C@@H](Cc1ccccc1)C(=O)N[C@@H](CC(C)C)C(=O)[C@@]1(C)CO1 [Carfilzomib (PR-171), Carfilzomib]
Average Area Under the Viability Curve (AUC), AUC norm value (YCC11): −0.7607
Average Area Under the Viability Curve (AUC), AUC norm value (YCC2): 0.8534
Average Area Under the Viability Curve (AUC), AUC norm value (SNU601): 1.489
Average Area Under the Viability Curve (AUC), AUC norm value (YCC3): 1.747
Average Area Under the Viability Curve (AUC), AUC norm value (MKN45): 0.5553
Average Area Under the Viability Curve (AUC), AUC norm value (SNU638): 0.1464
Average Area Under the Viability Curve (AUC), AUC norm value (KATO3): 0.1004
Average Area Under the Viability Curve (AUC), AUC norm value (SNU668): 1.899
Average Area Under the Viability Curve (AUC), AUC norm value (Hs746T): −1.399
Average Area Under the Viability Curve (AUC), AUC norm value (SNU719): 0.5178
Average Area Under the Viability Curve (AUC), AUC norm value (SNU1): 0.1391
Average Area Under the Viability Curve (AUC), AUC norm value (NCC24): −0.8995
Average Area Under the Viability Curve (AUC), AUC norm value (MKN1): 0.1771
Average Area Under the Viability Curve (AUC), AUC norm value (SNU484): −0.7602
Average Area Under the Viability Curve (AUC), AUC norm value (MKN28): −0.7065
Average Area Under the Viability Curve (AUC), AUC norm value (SNU16): −1.3183
Average Area Under the Viability Curve (AUC), AUC norm value (MKN74): −0.3162
Average Area Under the Viability Curve (AUC), AUC norm value (SNU216): 0
Average Area Under the Viability Curve (AUC), AUC norm value (SNU620): −0.4242
Average Area Under the Viability Curve (AUC), AUC norm value (AGS): −0.131
Average Area Under the Viability Curve (AUC), AUC norm value (SK4): −0.2415
Average Area Under the Viability Curve (AUC), AUC norm value (NCC19): 1.562
Average Area Under the Viability Curve (AUC), AUC norm value (NCC20): −2.002
Average Area Under the Viability Curve (AUC), AUC norm value (SNU1967): −0.5586
Average Area Under the Viability Curve (AUC), AUC norm value (NCC59): 0.8592
Average Area Under the Viability Curve (AUC), AUC norm value (OCUM1): 1.245
Average Area Under the Viability Curve (AUC), AUC norm value (NCI_N87): 0.5098
Average Area Under the Viability Curve (AUC), AUC norm value (SNU1750): −0.9787
Average Area Under the Viability Curve (AUC), AUC norm value (FU97): −0.1687

OC1(c2ccc(Cl)c(C(F)(F)F)c2)CCN(CCCC(c2ccc(F)cc2)c2ccc(F)cc2)CC1 [Penfluridol]
Average Area Under the Viability Curve (AUC), AUC norm value (YCC11): −0.5164
Average Area Under the Viability Curve (AUC), AUC norm value (YCC2): −0.07658
Average Area Under the Viability Curve (AUC), AUC norm value (SNU601): 0.6748
Average Area Under the Viability Curve (AUC), AUC norm value (YCC3): 0.4477
Average Area Under the Viability Curve (AUC), AUC norm value (MKN45): 0.9981
Average Area Under the Viability Curve (AUC), AUC norm value (SNU638): −1.32
Average Area Under the Viability Curve (AUC), AUC norm value (KATO3): 0
Average Area Under the Viability Curve (AUC), AUC norm value (SNU668): 0.00275
Average Area Under the Viability Curve (AUC), AUC norm value (Hs746T): 0.2822
Average Area Under the Viability Curve (AUC), AUC norm value (SNU719): 0.3303
Average Area Under the Viability Curve (AUC), AUC norm value (SNU1): 0.8479
Average Area Under the Viability Curve (AUC), AUC norm value (NCC24): 0.5023
Average Area Under the Viability Curve (AUC), AUC norm value (MKN1): −0.01646
Average Area Under the Viability Curve (AUC), AUC norm value (SNU484): −0.3957
Average Area Under the Viability Curve (AUC), AUC norm value (MKN28): −0.6097
Average Area Under the Viability Curve (AUC), AUC norm value (SNU16): −1.2587
Average Area Under the Viability Curve (AUC), AUC norm value (MKN74): −1.133
Average Area Under the Viability Curve (AUC), AUC norm value (SNU216): −0.5069
Average Area Under the Viability Curve (AUC), AUC norm value (SNU620): 0.04726
Average Area Under the Viability Curve (AUC), AUC norm value (AGS): −0.6917
Average Area Under the Viability Curve (AUC), AUC norm value (SK4): −0.5075
Average Area Under the Viability Curve (AUC), AUC norm value (NCC19): 0.6239
Average Area Under the Viability Curve (AUC), AUC norm value (NCC20): −0.8471
Average Area Under the Viability Curve (AUC), AUC norm value (SNU1967): −0.08879
Average Area Under the Viability Curve (AUC), AUC norm value (NCC59): 0.3439
Average Area Under the Viability Curve (AUC), AUC norm value (OCUM1): 0.2066
Average Area Under the Viability Curve (AUC), AUC norm value (NCI_N87): 0.3682
Average Area Under the Viability Curve (AUC), AUC norm value (SNU1750): −0.03209
Average Area Under the Viability Curve (AUC), AUC norm value (FU97): 0.09295

O=C1c2c(O)ccc(O)c2C(=O)c2c(NCCNCCO)ccc(NCCNCCO)c21 [Mitoxantrone Hydrochloride]
area under the viability curve (AUC), normalized (YCC11; YCC11 cells, 12-point dose-response): −1.252
area under the viability curve (AUC), normalized (YCC2; 12-point dose-response): 0.5126
area under the viability curve (AUC), normalized (SNU601; 12-point dose-response): −0.5251
area under the viability curve (AUC), normalized (YCC3; 12-point dose-response): 2.27
area under the viability curve (AUC), normalized (MKN45; MKN45 cells, 12-point dose-response): 2.014
area under the viability curve (AUC), normalized (SNU638; 12-point dose-response): −1.06
area under the viability curve (AUC), normalized (KATO3; 12-point dose-response): 4.807
area under the viability curve (AUC), normalized (SNU668; SNU668 cells, 12-point dose-response): −0.6581
area under the viability curve (AUC), normalized (Hs746T; Hs746T cells, 12-point dose-response): 0.5925
area under the viability curve (AUC), normalized (SNU719; 12-point dose-response): 3.647
area under the viability curve (AUC), normalized (SNU1; 12-point dose-response): 0
area under the viability curve (AUC), normalized (NCC24; 12-point dose-response): −1.038
area under the viability curve (AUC), normalized (MKN1; 12-point dose-response): −1.197
area under the viability curve (AUC), normalized (SNU484; SNU484 cells, 12-point dose-response): −1.158
area under the viability curve (AUC), normalized (MKN28; 12-point dose-response): 1.616
area under the viability curve (AUC), normalized (SNU16; 12-point dose-response): 1.6
area under the viability curve (AUC), normalized (MKN74; 12-point dose-response): −0.2914
area under the viability curve (AUC), normalized (SNU216; SNU216 cells, 12-point dose-response): 1.1656
area under the viability curve (AUC), normalized (SNU620; 12-point dose-response): −0.6012
area under the viability curve (AUC), normalized (AGS; AGS cells, 12-point dose-response): −1.671
area under the viability curve (AUC), normalized (SK4; SK4 cells, 12-point dose-response): −0.6127
area under the viability curve (AUC), normalized (NCC19; 12-point dose-response): 2.884
area under the viability curve (AUC), normalized (NCC20; 12-point dose-response): −0.7422
area under the viability curve (AUC), normalized (SNU1967; 12-point dose-response): −1.342
area under the viability curve (AUC), normalized (NCC59; 12-point dose-response): 1.001
area under the viability curve (AUC), normalized (OCUM1; 12-point dose-response): 0.8078
area under the viability curve (AUC), normalized (NCI_N87; 12-point dose-response): 2.6755
area under the viability curve (AUC), normalized (SNU1750; SNU1750 cells, 12-point dose-response): −0.3587
area under the viability curve (AUC), normalized (FU97; 12-point dose-response): 0.4542
